Read-outs that look alike come from different tables or passages of the source.
How the values were obtained:
[1] = tested on: CYP1A2, CYP2B6, CYP2C8, CYP2C9, CYP2C19; test: CYP phenotyping, other recombinant CYP isoforms; assay type: in vitro ADME; details: 1 μM, up to 120 min
Description: (§1) CYP phenotyping involved the identification of CYP isoforms, which involved in the metabolism of R-VK4-116 using recombinant CYP1A2, CYP2B6, CYP2C8, CYP2C9, CYP2C19, CYP2D6, and CYP3A4 (XenoTech, LLC, Kansas City, KS), followed by determination of the Km and Vmax for the metabolites formed by the major CYP isoforms. […] In addition, R-VK4-116 was also incubated with all components in the absence of NADPH. […] Following brief vortexing and centrifugation, 50 μl of supernatant was mixed with 450 μl of 25:75:0.2 acetonitrile/water/formic acid for analysis by LC-MS/MS to determine the remaining R-VK4-116 at each time point based on peak area ratio (PAR) of R-VK4-116 to IS. As a positive control, the known substrate of each individual CYP isoform (phenacetin for CYP1A2, bupropion for CYP2B6, paclitaxel for CYP2C8, diclofenac for CYP2C9, diazepam for CYP2C19, bufuralol for CYP2D6, and testosterone for CYP3A4) was also incubated.

[2] = biological target: T1, OAT1 (Homo sapiens, UniProt Q4U2R8); test: Transporter mediated assay (substrate/inhibitor), MDCK-II cells; assay type: in vitro ADME
T1 construct: expressed in transfected cells; host or cells: MDCK-II cells
T1 sequence (Q4U2R8 1-563): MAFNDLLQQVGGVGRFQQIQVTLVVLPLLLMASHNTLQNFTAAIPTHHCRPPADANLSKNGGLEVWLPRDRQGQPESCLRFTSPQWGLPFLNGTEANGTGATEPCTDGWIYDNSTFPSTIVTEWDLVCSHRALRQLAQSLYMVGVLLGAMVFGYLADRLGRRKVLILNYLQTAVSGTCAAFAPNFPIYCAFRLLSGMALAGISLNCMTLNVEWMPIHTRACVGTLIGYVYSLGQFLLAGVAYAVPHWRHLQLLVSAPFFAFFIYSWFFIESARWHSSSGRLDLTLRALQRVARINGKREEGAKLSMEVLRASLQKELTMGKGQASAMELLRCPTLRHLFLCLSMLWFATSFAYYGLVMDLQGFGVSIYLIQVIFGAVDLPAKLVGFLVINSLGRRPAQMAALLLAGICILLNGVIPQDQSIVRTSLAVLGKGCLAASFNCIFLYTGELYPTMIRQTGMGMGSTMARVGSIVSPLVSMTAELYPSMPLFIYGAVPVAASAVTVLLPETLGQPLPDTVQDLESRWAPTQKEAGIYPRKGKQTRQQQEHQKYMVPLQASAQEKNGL
Description: The MDCK-II cells were treated to express the transporter of interest. The transport of each probe substrate was determined by radiometric detection (Fig 1 in S1 File). […] For the uptake assay, the net transporter-mediated uptake-rate (V) of the substrate by each SLC transporter was calculated as follows: Transporter–mediatedupdaterate(pmol/min/cm^2)=(Cellularaccumulationincellsexpressingthetransporter)−(Meancellularaccumulationincontrolcells)/Surfacearea×incubationtime

[3] = biological target: T2, CHEK2 (Homo sapiens, UniProt O96017); test: KINOMEscan binding (% Ctrl, Kd)
T2 construct: made in house; host or cells: E. coli BL21-derived host (T7 phage) or HEK-293
T2 sequence (O96017 whole entry): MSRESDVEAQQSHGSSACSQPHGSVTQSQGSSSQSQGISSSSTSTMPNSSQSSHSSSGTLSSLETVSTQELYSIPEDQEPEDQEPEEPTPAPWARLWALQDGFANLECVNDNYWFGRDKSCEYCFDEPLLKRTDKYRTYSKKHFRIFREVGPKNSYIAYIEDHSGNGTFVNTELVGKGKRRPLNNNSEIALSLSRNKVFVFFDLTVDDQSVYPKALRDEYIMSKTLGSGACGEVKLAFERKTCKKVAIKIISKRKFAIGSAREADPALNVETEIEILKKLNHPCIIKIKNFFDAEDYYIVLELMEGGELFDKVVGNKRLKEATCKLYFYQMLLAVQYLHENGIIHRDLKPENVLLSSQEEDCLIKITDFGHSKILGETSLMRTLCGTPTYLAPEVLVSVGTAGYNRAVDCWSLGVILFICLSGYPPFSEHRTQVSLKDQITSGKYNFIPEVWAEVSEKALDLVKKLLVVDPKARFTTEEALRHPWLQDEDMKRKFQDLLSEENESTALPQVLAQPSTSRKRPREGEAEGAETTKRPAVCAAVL
Description: Briefly, E. coli host derived from the BL21 strain were grown to log-phase and infected with kinase-tagged T7 phage and incubated with shaking at 32°C until lysis. The lysates were centrifuged and filtered to remove cell debris. The remaining kinases were produced in HEK-293 cells and subsequently tagged with DNA for qPCR detection. Streptavidin-coated magnetic beads were treated with biotinylated small molecule ligands to generate affinity resins for kinase assays. The liganded beads were blocked with excess biotin and washed to remove unbound ligand and to reduce non-specific phage binding. […] Selectivity Score (S-score) was a quantitative measure of compound selectivity. […] The binding constants (Kds) were also determined with a standard dose-response curve using the Hill equation and Levenberg-Marquardt algorithm [24, 25].

[4] = biological target: T3, CYP3A4 (Homo sapiens, UniProt P08684); test: in vitro; details: microsomes
Target sequence in this assay (P08684 2-503): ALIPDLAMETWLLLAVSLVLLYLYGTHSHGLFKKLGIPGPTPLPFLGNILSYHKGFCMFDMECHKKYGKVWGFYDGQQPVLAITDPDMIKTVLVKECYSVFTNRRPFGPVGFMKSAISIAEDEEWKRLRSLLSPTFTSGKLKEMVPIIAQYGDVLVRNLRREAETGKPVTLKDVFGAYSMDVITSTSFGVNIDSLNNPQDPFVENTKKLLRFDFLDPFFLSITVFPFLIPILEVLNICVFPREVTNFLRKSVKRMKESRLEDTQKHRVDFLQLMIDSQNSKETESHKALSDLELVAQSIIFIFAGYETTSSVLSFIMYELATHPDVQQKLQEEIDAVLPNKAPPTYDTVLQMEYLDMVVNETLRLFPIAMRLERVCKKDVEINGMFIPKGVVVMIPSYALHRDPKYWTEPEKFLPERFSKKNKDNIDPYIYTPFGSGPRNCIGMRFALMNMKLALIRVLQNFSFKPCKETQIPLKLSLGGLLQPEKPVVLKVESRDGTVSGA

[5] = biological target: T4, CYP1A2 (Homo sapiens, UniProt P05177); test: CYP inhibition in human liver microsomes; details: human liver microsomes
T4 sequence (P05177 1-516): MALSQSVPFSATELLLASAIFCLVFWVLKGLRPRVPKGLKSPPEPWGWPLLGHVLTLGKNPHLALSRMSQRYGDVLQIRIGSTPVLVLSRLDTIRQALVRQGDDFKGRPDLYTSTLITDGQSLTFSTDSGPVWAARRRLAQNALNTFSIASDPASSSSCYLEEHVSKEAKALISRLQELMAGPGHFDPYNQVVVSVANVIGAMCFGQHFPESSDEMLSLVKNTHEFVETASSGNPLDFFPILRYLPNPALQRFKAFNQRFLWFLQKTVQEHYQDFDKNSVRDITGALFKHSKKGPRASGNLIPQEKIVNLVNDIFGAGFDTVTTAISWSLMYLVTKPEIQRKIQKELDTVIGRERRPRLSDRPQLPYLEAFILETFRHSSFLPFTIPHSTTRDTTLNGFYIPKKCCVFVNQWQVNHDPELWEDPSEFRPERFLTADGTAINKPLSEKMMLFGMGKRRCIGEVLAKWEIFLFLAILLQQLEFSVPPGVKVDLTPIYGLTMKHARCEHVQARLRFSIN

[6] = biological target: CYP2C9 (Homo sapiens, UniProt P11712); test: CYP inhibition in human liver microsomes; details: human liver microsomes
Chain of CYP2C9 (P11712 whole entry): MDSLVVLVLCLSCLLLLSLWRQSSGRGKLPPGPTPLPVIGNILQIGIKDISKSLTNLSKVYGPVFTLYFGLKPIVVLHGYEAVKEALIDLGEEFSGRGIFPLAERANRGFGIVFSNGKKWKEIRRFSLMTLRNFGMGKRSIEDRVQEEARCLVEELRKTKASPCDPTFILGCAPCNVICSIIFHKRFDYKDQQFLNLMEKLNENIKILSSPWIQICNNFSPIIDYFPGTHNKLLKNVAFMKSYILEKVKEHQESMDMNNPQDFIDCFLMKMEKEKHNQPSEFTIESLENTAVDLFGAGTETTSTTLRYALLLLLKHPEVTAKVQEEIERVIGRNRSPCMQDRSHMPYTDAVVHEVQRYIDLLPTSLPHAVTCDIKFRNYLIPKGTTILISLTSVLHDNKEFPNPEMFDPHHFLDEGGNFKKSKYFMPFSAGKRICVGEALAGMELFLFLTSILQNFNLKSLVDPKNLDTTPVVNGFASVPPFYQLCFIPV

[7] = biological target: CYP2D6 (Homo sapiens, UniProt P10635); test: CYP phenotyping, recombinant CYP; assay type: in vitro ADME; design: purchased XenoTech, LLC, Kansas City, KS; host or cells: bactosomes (bacterial membranes); details: recombinant CYP2D6, pH 7.4, incubated with CYP2D6, 1 μM, 120 min
Chain of CYP2D6 (P10635 whole entry): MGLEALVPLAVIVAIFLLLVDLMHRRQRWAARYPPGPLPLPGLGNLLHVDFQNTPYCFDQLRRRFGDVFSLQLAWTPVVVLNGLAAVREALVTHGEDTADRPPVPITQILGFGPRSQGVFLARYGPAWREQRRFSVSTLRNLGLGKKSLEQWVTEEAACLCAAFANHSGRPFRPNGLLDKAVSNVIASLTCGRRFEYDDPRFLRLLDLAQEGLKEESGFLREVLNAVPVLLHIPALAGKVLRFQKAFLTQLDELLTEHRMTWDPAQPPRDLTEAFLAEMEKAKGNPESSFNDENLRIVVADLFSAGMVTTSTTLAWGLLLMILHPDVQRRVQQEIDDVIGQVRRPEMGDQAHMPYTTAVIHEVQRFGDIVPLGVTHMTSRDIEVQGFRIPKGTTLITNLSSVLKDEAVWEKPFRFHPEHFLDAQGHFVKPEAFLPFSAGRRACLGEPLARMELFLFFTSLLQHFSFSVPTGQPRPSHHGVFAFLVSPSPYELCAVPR
Description: as §1

[8] = biological target: T3, CYP3A4; test: CYP phenotyping, recombinant CYP; assay type: in vitro ADME; design: purchased XenoTech, LLC, Kansas City, KS; host or cells: bactosomes (bacterial membranes); details: recombinant CYP3A4, pH 7.4, incubated with CYP3A4, 1 μM, 120 min
Description: as §1
Target sequence in this assay (P08684 whole entry): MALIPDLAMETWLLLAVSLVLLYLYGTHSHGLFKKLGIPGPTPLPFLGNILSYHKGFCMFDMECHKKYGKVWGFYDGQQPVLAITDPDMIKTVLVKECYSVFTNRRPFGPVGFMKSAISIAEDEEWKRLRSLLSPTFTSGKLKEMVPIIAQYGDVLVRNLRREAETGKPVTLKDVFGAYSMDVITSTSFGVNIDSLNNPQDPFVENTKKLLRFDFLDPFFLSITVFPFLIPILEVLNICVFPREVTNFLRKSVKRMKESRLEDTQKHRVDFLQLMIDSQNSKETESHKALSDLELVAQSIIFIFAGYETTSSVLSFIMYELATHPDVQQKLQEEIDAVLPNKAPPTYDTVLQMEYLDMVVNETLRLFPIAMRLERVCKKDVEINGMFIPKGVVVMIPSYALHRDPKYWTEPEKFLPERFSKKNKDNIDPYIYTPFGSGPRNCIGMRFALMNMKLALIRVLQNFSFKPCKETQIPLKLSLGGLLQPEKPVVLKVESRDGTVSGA

[9] = CYP activity (% of Control) 3A4 (Midazolam)
[10] = CYP activity (% of Control) 3A4 (Testosterone)

In the case of `CCc1cc(Cl)c(OC)c(N2CCN(CC(O)CCNC(=O)c3cc4ccccc4[nH]3)CC2)c1` (stereo not shown) [R-VK4-116, N-(4-(4-(3-chloro-5-ethyl-2-methoxyphenyl)piperazin-1-yl)-3-hydroxybutyl)-1H-indole-2-carboxamide], the “metabolism by other CYP isoforms” value [1] is reported as “Minimal to no metabolism”, the “fold difference in mean uptake rate (substrate test)” value ([2]; OAT1, 1 μM, transporter cells vs control cells) is reported as less than 2 fold and the “Inhibition (%)” value ([2]; OAT1, 0.1% BSA, 10 μM) is reported as “no statistically significant inhibition”. It also gave an inhibition at 10 µM ([2]; human, polarized monolayer of MDCK-II cells expressing OAT1, OAT1, 0.1% BSA, 10 μM) of 8.97 ± 1.58%, a Kd ([3]; 11-point curve 0.001 to 10 μM, read-out: binding constant (Kd)) greater than 10 µM and a remaining binding at 1 µM ([3]; read-out: %Control) of less than 35%. For the same compound, the remaining binding at 1 µM ([3]; read-out: Gene (S-score with % control): CHEK2) was 19%, the activity at 20 min, 0.1 µM [4, 9] was 97.5 ± 3.9% and the activity at 20 min, 0.3 µM [4, 9] was 93.9 ± 2.4%. It also gave an activity at 20 min, 1 µM [4, 9] of 95.3 ± 0.9%, an activity at 20 min, 3 µM [4, 9] of 95.6 ± 4.2% and an activity at 20 min, 10 µM [4, 9] of 96.9 ± 2%. For the same compound, the activity at 20 min, 30 µM [4, 9] was 92.2 ± 0.7%, the activity at 20 min, 60 µM [4, 9] was 92.6 ± 1% and the activity at 20 min, 100 µM [4, 9] was 96.9 ± 3.2%. The activity at 20 min, 0.1 µM [4, 10] was 96.5 ± 3.6%, the activity at 20 min, 0.3 µM [4, 10] was 93.2 ± 3.8% and the activity at 20 min, 1 µM [4, 10] was 94.2 ± 2.4%. The activity at 20 min, 3 µM [4, 10] was 92.8 ± 4.8%, the activity at 20 min, 10 µM [4, 10] was 93.9 ± 2.1% and the activity at 20 min, 30 µM [4, 10] was 94.2 ± 1.5%. For the same compound, the activity at 20 min, 60 µM [4, 10] was 92.1 ± 1.1%, the activity at 20 min, 100 µM [4, 10] was 95.5 ± 3.7% and the CYP1A2 inhibition ([5]; up to 100 μM) was “did not inhibit CYP significantly”. The activity at 20 min, 0.1 µM ([5]; human, probe phenacetin) was 93.7 ± 5.5%, the activity at 20 min, 0.3 µM ([5]; human, probe phenacetin) was 87.7 ± 2.4% and the activity at 20 min, 1 µM ([5]; human, probe phenacetin) was 89.9 ± 0.9%. It also gave an activity at 20 min, 3 µM ([5]; human, probe phenacetin) of 95.7 ± 5.2%, an activity at 20 min, 10 µM ([5]; human, probe phenacetin) of 96.3 ± 4.7% and an activity at 20 min, 30 µM ([5]; human, probe phenacetin) of 88.7 ± 1.9%. For the same compound, the activity at 20 min, 60 µM ([5]; human, probe phenacetin) was 88.2 ± 2.3%, the activity at 20 min, 100 µM ([5]; human, probe phenacetin) was 94 ± 5.2% and the CYP2C9 inhibition ([6]; up to 100 μM) was “did not inhibit CYP significantly”. The activity at 20 min, 0.1 µM ([6]; human, probe diclofenac) was 89.5 ± 9.2%, the activity at 20 min, 0.3 µM ([6]; human, probe diclofenac) was 79 ± 2.7% and the activity at 20 min, 1 µM ([6]; human, probe diclofenac) was 80.9 ± 2.2%. It also gave an activity at 20 min, 3 µM ([6]; human, probe diclofenac) of 92.3 ± 10.1%, an activity at 20 min, 10 µM ([6]; human, probe diclofenac) of 91.5 ± 7.3% and an activity at 20 min, 30 µM ([6]; human, probe diclofenac) of 80.9 ± 0.9%. It also gave an activity at 20 min, 60 µM ([6]; human, probe diclofenac) of 81.8 ± 3.1%, an activity at 20 min, 100 µM ([6]; human, probe diclofenac) of 93.4 ± 8.1% and a remaining at 2 h, 1 μM [7] of 40.6%. The remaining at 2 h, 1 μM [8] was 25.6%.
